Tested on: fibrin clot
Assay: Structural profile of fibrin clot, Protocol C on STA-R with tissue factor and plasminogen activator (TF+t-PA)
Format: biochemical
Procedure: Protocol C (With t-PA, Method on STA-R® with Tissue Factor and Plasminogen Activator):
To 8 cuvettes of the STA-R® Evolution Expert Series automated device (Stago), are added, simultaneously by the instrument: • 200 μl of a sample of pure plasma, • 50 μl of a [TF 2 to 5 pM final concentration+PL 4 μM final concentration+tPA 0.1 to 0.2 μg/ml final concentration] mixture.
The automated device agitates by means of the arm, and carries out an incubation for 300 seconds at 37° C.
It then adds 50 μl of CaCl2 at a final concentration of 16.7 mM, and agitates by means of the needle of the initiating reagent.
Finally, the automated device measures the number of protofibrils at the 2 wavelengths of 540 nm and 780 nm as a function of time for 30 minutes.
To 8 cuvettes of the STA-R® Evolution Expert Series automated device (Stago), are added, simultaneously by the instrument: • 200 μl of sample of pure plasma from 9 patients with normal hemostatis results, of a frozen plasma deficient in PAI-1, of 3 control plasmas at 0, 20 and 40 AU/ml of PAI-1, of a protein S-depleted plasma, of a TFPI-depleted plasma and of 3 plasmas with an overload of rivaroxaban at 0, 100 and 200 ng/ml, • 50 μl of a [TF 2 to 5 pM final concentration+PL 4 μM final concentration+t-PA 150 ng/ml] mixture.
It then adds 50 μl of CaCl2 at a final concentration of 16.7 mM, and agitates by means of the needle.

For O=C(NC[C@H]1CN(c2ccc(N3CCOCC3=O)cc2)C(=O)O1)c1ccc(Cl)s1 [rivaroxaban], the “downward slope of the protofibril plateau” value (plasma containing rivaroxaban, TF + t-PA 150 ng/ml) was “all the greater the faster the lysis” and the “protofibril plateau (duration), reflecting the stability of the clot” value (plasmas with an overload of rivaroxaban at 0, 100 and 200 ng/ml, TF 2 to 5 pM, t-PA 150 ng/ml, 30 minutes) was “shortened proportionally to the concentration”.
